Laboratory results published in PubChem BioAssay (NCI).
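Compound exposure: 48 hours, 5 concentrations, 96-well plates. TGI: concentration producing complete growth inhibition.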

What was measured:
Experiment in all cases: NCI anticancer screen, dose series, 48 h
[1] = tested on: NCI-H23 lung
[2] = tested on: A549 NSCLC
[3] = tested on: TK-10 renal
[4] = tested on: RPMI-8226 leukemia
[5] = tested on: ACHN renal
[6] = tested on: SF-539 CNS
[7] = tested on: LOX IMVI melanoma
[8] = tested on: SK-MEL-2 melanoma
[9] = tested on: OVCAR-4 ovarian
[10] = tested on: 786-0 renal
[11] = tested on: SNB-19 CNS
[12] = tested on: HL-60(TB) leukemia
[13] = tested on: NCI-H226 lung
[14] = tested on: SNB-75 CNS
[15] = tested on: COLO 205 colon
[16] = tested on: HT29 colon
[17] = tested on: KM12 colon
[18] = tested on: K-562 leukemia
[19] = tested on: IGROV1 ovarian
[20] = tested on: UACC-62 melanoma
[21] = tested on: NCI-H522 lung
[22] = tested on: HOP-92 NSCLC
[23] = tested on: UACC-257 melanoma
[24] = tested on: CCRF-CEM leukemia
[25] = tested on: M14 melanoma
[26] = tested on: MALME-3M melanoma
[27] = tested on: HCT-15 colon
[28] = tested on: OVCAR-8 ovarian
[29] = tested on: HOP-62 NSCLC
[30] = tested on: SR leukemia
[31] = tested on: SF-295 CNS
[32] = tested on: SK-MEL-5 melanoma
[33] = tested on: SW-620 colon
[34] = tested on: KM20L2 colon
[35] = tested on: OVCAR-3 ovarian
[36] = tested on: LXFL 529 NSCLC
[37] = tested on: SK-OV-3 ovarian
[38] = tested on: HCT-116 colon
[39] = tested on: SK-MEL-28 melanoma
[40] = tested on: NCI-H460 lung
[41] = tested on: HOP-18 NSCLC
[42] = tested on: A498 renal
[43] = tested on: OVCAR-5 ovarian
[44] = tested on: U251 CNS
[45] = tested on: M19-MEL melanoma
[46] = tested on: UO-31 renal
[47] = tested on: DMS 114 small cell lung
[48] = tested on: MOLT-4 leukemia
[49] = tested on: CAKI-1 renal
[50] = tested on: SN12C renal
[51] = tested on: SF-268 CNS
[52] = tested on: SNB-78 CNS
[53] = tested on: HCC-2998 colon
[54] = tested on: DLD-1 colon
[55] = tested on: RXF 393 renal
[56] = tested on: XF 498 CNS
[57] = tested on: DMS 273 small cell lung
[58] = tested on: EKVX NSCLC

## O=C(Nc1c(O)[nH]c(=S)[nH]c1=O)c1ccco1
[1]
  TGI: > 100 µM
[2]
  TGI: > 100 µM
[3]
  TGI: > 100 µM
[4]
  TGI: > 100 µM
[5]
  TGI: > 100 µM
[6]
  TGI: > 100 µM
[7]
  TGI: > 100 µM
[8]
  TGI: > 100 µM
[9]
  TGI: > 100 µM
[10]
  TGI: > 100 µM
[11]
  TGI: > 100 µM
[12]
  TGI: > 100 µM
[13]
  TGI: > 100 µM
[14]
  TGI: > 100 µM
[15]
  TGI: > 100 µM
[16]
  TGI: > 100 µM
[17]
  TGI: > 100 µM
[18]
  TGI: > 100 µM
[19]
  TGI: > 100 µM
[20]
  TGI: > 100 µM
[21]
  TGI: > 100 µM
[22]
  TGI: > 100 µM
[23]
  TGI: > 100 µM
[24]
  TGI: > 100 µM
[25]
  TGI: > 100 µM
[26]
  TGI: > 100 µM
[27]
  TGI: > 100 µM
[28]
  TGI: > 100 µM
[29]
  TGI: > 100 µM
[30]
  TGI: > 100 µM
[31]
  TGI: > 100 µM
[32]
  TGI: > 100 µM
[33]
  TGI: > 100 µM
[34]
  TGI: > 100 µM
[35]
  TGI: > 100 µM
[36]
  TGI: > 100 µM
[37]
  TGI: > 100 µM
[38]
  TGI: > 100 µM
[39]
  TGI: > 100 µM
[40]
  TGI: > 100 µM
[41]
  TGI: > 100 µM
[42]
  TGI: > 100 µM
[43]
  TGI: > 100 µM
[44]
  TGI: > 100 µM
[45]
  TGI: > 100 µM
[46]
  TGI: > 100 µM
[47]
  TGI: > 100 µM
[48]
  TGI: > 100 µM
[49]
  TGI: > 100 µM
[50]
  TGI: > 100 µM
[51]
  TGI: > 100 µM
[52]
  TGI: > 100 µM

## CCN(CC)c1ccc2cc3ccc(=[N+](CC)CC)cc-3oc2c1
[1]
  TGI: 3.04 µM
[2]
  TGI: 16.6 µM
[3]
  TGI: 17.2 µM
[4]
  TGI: 3.16 µM
[53]
  TGI: 19 µM
[5]
  TGI: 7.39 µM
[6]
  TGI: 5.12 µM
[7]
  TGI: 1.98 µM
[8]
  TGI: 2.99 µM
[54]
  TGI: 14.5 µM
[9]
  TGI: 26.1 µM
[10]
  TGI: 7.73 µM
[11]
  TGI: 23.3 µM
[55]
  TGI: 11.6 µM
[12]
  TGI: 0.532 µM
[13]
  TGI: 15.4 µM
[14]
  TGI: 16.3 µM
[15]
  TGI: 2.05 µM
[16]
  TGI: 4.48 µM
[17]
  TGI: 1.92 µM
[18]
  TGI: > 100 µM
[19]
  TGI: 8.36 µM
[20]
  TGI: 9.36 µM
[21]
  TGI: 5.7 µM
[22]
  TGI: 3.13 µM
[23]
  TGI: 10.4 µM
[24]
  TGI: 6.33 µM
[25]
  TGI: 6.03 µM
[26]
  TGI: 2.78 µM
[27]
  TGI: 12.7 µM
[28]
  TGI: 1.84 µM
[29]
  TGI: 13.7 µM
[30]
  TGI: 1.52 µM
[31]
  TGI: 16.3 µM
[32]
  TGI: 7.76 µM
[33]
  TGI: 1.43 µM
[34]
  TGI: 12.1 µM
[35]
  TGI: 2.11 µM
[56]
  TGI: 7.99 µM
[36]
  TGI: 1.79 µM
[37]
  TGI: 13.6 µM
[38]
  TGI: 1.77 µM
[39]
  TGI: 10.3 µM
[40]
  TGI: 6.62 µM
[42]
  TGI: 29.8 µM
[57]
  TGI: 2.49 µM
[43]
  TGI: 19.6 µM
[44]
  TGI: 2.02 µM
[58]
  TGI: 19.9 µM
[46]
  TGI: 8.52 µM
[47]
  TGI: 3.8 µM
[48]
  TGI: 2.09 µM
[49]
  TGI: 18 µM
[50]
  TGI: 2.33 µM
[51]
  TGI: 2.75 µM
[52]
  TGI: 11.1 µM

## OCCCCOC(c1ccccc1)(c1ccccc1)c1ccccc1
[1]
  TGI: > 100 µM
[2]
  TGI: > 100 µM
[3]
  TGI: > 100 µM
[4]
  TGI: > 100 µM
[53]
  TGI: > 100 µM
[5]
  TGI: > 100 µM
[6]
  TGI: > 100 µM
[7]
  TGI: > 100 µM
[54]
  TGI: > 100 µM
[9]
  TGI: > 100 µM
[10]
  TGI: > 100 µM
[55]
  TGI: > 100 µM
[12]
  TGI: > 100 µM
[13]
  TGI: > 100 µM
[14]
  TGI: > 100 µM
[15]
  TGI: > 100 µM
[16]
  TGI: > 100 µM
[17]
  TGI: > 100 µM
[18]
  TGI: > 100 µM
[19]
  TGI: > 100 µM
[20]
  TGI: > 100 µM
[21]
  TGI: > 100 µM
[22]
  TGI: > 100 µM
[23]
  TGI: > 100 µM
[24]
  TGI: > 100 µM
[25]
  TGI: > 100 µM
[26]
  TGI: > 100 µM
[27]
  TGI: > 100 µM
[28]
  TGI: > 100 µM
[29]
  TGI: > 100 µM
[30]
  TGI: > 100 µM
[31]
  TGI: > 100 µM
[32]
  TGI: > 100 µM
[33]
  TGI: > 100 µM
[34]
  TGI: > 100 µM
[35]
  TGI: > 100 µM
[56]
  TGI: > 100 µM
[36]
  TGI: > 100 µM
[37]
  TGI: > 100 µM
[38]
  TGI: > 100 µM
[39]
  TGI: > 100 µM
[40]
  TGI: > 100 µM
[57]
  TGI: > 100 µM
[43]
  TGI: > 100 µM
[44]
  TGI: > 100 µM
[46]
  TGI: > 100 µM
[47]
  TGI: > 100 µM
[48]
  TGI: > 100 µM
[49]
  TGI: > 100 µM
[50]
  TGI: > 100 µM
[51]
  TGI: > 100 µM
[52]
  TGI: > 100 µM

## COc1ccccc1/C=C1\C(=O)N(C(=O)c2ccc(NC(C)=O)cc2)N=C1C
[1]
  TGI: > 100 µM
[2]
  TGI: > 100 µM
[3]
  TGI: > 100 µM
[4]
  TGI: > 100 µM
[53]
  TGI: > 100 µM
[5]
  TGI: > 100 µM
[6]
  TGI: > 100 µM
[7]
  TGI: > 100 µM
[8]
  TGI: > 100 µM
[54]
  TGI: > 100 µM
[9]
  TGI: > 100 µM
[10]
  TGI: > 100 µM
[11]
  TGI: > 100 µM
[12]
  TGI: > 100 µM
[13]
  TGI: > 100 µM
[14]
  TGI: > 100 µM
[15]
  TGI: > 100 µM
[16]
  TGI: > 100 µM
[17]
  TGI: > 100 µM
[18]
  TGI: > 100 µM
[21]
  TGI: > 100 µM
[23]
  TGI: > 100 µM
[24]
  TGI: > 100 µM
[26]
  TGI: > 100 µM
[27]
  TGI: > 100 µM
[28]
  TGI: > 100 µM
[29]
  TGI: > 100 µM
[30]
  TGI: > 100 µM
[31]
  TGI: > 100 µM
[32]
  TGI: > 100 µM
[33]
  TGI: > 100 µM
[35]
  TGI: > 100 µM
[56]
  TGI: > 100 µM
[38]
  TGI: > 100 µM
[39]
  TGI: > 100 µM
[40]
  TGI: > 100 µM
[57]
  TGI: > 100 µM
[43]
  TGI: > 100 µM
[44]
  TGI: > 100 µM
[58]
  TGI: > 100 µM
[45]
  TGI: > 100 µM
[46]
  TGI: > 100 µM
[47]
  TGI: > 100 µM
[48]
  TGI: > 100 µM
[49]
  TGI: > 100 µM
[50]
  TGI: > 100 µM
[51]
  TGI: > 100 µM
[52]
  TGI: > 100 µM

## Cn1cc/c(=N\N=c2/ccn(C)c3ccccc23)c2ccccc21
[1]
  TGI: 27.4 µM
[2]
  TGI: 30.6 µM
[3]
  TGI: 36.4 µM
[53]
  TGI: 29.2 µM
[5]
  TGI: 27 µM
[6]
  TGI: 29.4 µM
[7]
  TGI: 24.2 µM
[54]
  TGI: 29.4 µM
[9]
  TGI: 25.5 µM
[10]
  TGI: 30.1 µM
[11]
  TGI: 36.3 µM
[55]
  TGI: 27.5 µM
[12]
  TGI: 21.6 µM
[13]
  TGI: 25.8 µM
[14]
  TGI: 61.8 µM
[15]
  TGI: 22.1 µM
[16]
  TGI: 31.7 µM
[17]
  TGI: 25.6 µM
[18]
  TGI: 22.2 µM
[20]
  TGI: 29.8 µM
[21]
  TGI: 27.8 µM
[23]
  TGI: 27.3 µM
[24]
  TGI: 24.5 µM
[25]
  TGI: 30.8 µM
[26]
  TGI: 31 µM
[27]
  TGI: 29.2 µM
[28]
  TGI: 28.5 µM
[29]
  TGI: 31.6 µM
[30]
  TGI: 47.3 µM
[31]
  TGI: 30.9 µM
[32]
  TGI: 29.4 µM
[34]
  TGI: 28.2 µM
[35]
  TGI: 24 µM
[56]
  TGI: 27.1 µM
[36]
  TGI: 27.2 µM
[37]
  TGI: 31 µM
[38]
  TGI: 23.4 µM
[39]
  TGI: 28.5 µM
[40]
  TGI: 25 µM
[42]
  TGI: 37.2 µM
[57]
  TGI: 30 µM
[43]
  TGI: 30.3 µM
[44]
  TGI: 29.1 µM
[58]
  TGI: 27.8 µM
[45]
  TGI: 34.2 µM
[46]
  TGI: 26.3 µM
[47]
  TGI: 27.7 µM
[48]
  TGI: 63.9 µM
[49]
  TGI: 33.2 µM
[50]
  TGI: 33 µM
[51]
  TGI: 39.2 µM
[52]
  TGI: 33.3 µM
